# Measured values as given in patent US20260151327A1, “COSMETIC COMPOSITION FOR SKIN PROTECTION CONTAINING SCUTELLARIA BAICALENSIS EXTRACT AS ACTIVE INGREDIENT” (EVERBIO CO., LTD., priority 2022, published 2026).
# Legend:
# Assay type in all cases: cell-based
# [1] = Cytotoxicity (CC50) in adipose-derived stem cells, 3 days exposure; conditions: human, adipose-derived stem cells (ASCs, ATCC PCS-500-011), benzo[a]pyrene, ASCs exposed for 3 days; read-out: CC50 (50% cytotoxicity concentration)
# Experimental: (§1) PCS-500-011™ cells (Thermo-Fisher Scientific, USA) were purchased as adipose-derived stem cells (ASCs) used in the experiment, from American Type Culture Collection (ATCC), and subcultured for 3 passages in the MesenPRO RS™ medium and MesenPRO RS™ growth supplement medium (Thermo-Fisher scientific, USA) until the live cells reached 80% to 90% confluency.
# (§2) Specifically, the cell stock vial was thawed in a 37° C. water bath and suspended in a medium with an equal volume of the cell stock vial, and then the suspension was transferred to a tube and centrifuged (2,000 rpm, 2 min, 4° C.), followed by removal of the supernatant. The phosphate buffered saline (PBS) was added to the cell pellets remaining after the removal of the supernatant, and then the above procedures were repeated three times. Thereafter, the resultant product was placed in a medium where the cell pellets were to be grown, followed by gentle pipetting up and down, thereby preparing a cell suspension. The cell suspension was dispensed into a flask or dish containing an appropriate amount of medium. The cells were subcultured when the cells reached 70% to 80% confluency on the bottom.
# (§3) PBS, media, and trypsin-EDTA were warmed at 37° C. for 30 minutes before use. The supernatant medium was removed by suction, and PBS was dispensed. […]
# [2] = tested on: adipose-derived stem cells (ASCs); experiment: as above; conditions: benzo[a]pyrene, ASCs exposed for 3 days; read-out: CC50 (50% cytotoxicity concentration)
# Experimental: as §1, §2, §3
# [3] = tested on: hormone sensitive lipase (HSL); experiment: Lipolysis promoting effect in ASCs, FITC-anti-HSL staining, flow cytometry and HSL synthesis level; conditions: benzo[a]pyrene alone (BP50)
# Experimental: (§4) AMP-activated protein kinase (AMPK) and hormone sensitive lipase (HSL), most common lipolytic enzymes, were applied to adipose-derived stem cells (ASCs), and the lipids obtained by degradation through AMPK were stained with PE-anti-AMPK (R&D system, USA), and the lipids obtained by degradation through HSL were stained with FITC-anti-HSL (R&D system, USA) for 24 hours. The lipids were washed with PBS, and then analyzed using a flow cytometer (FACSCalibur) and FlowJo v10.6.1 (BD Bioscience, USA), and the results are shown in FIG. 3A.
# (§5) The synthesis levels of AMPK and HSL were analyzed and plotted in FIG. 3B.
# [4] = tested on: adipose-derived stem cells (ASCs); experiment: Annexin-V-PI staining and flow cytometry: protection of ASCs against benzo[a]pyrene toxicity; conditions: human, 50 μM/mL
# Experimental: The adipose-derived stem cell (ASC) protective effect of the Scutellaria baicalensis extract against the cell toxicity of benzo[a]pyrene was analyzed as below.
# The adipose-derived stem cells cultured by the method in Example 1-1 were divided into i) a group treated with 50 μM/mL benzo[a]pyrene (BP50), ii) a group treated with 50 μM/mL benzo[a]pyrene and 200 μL/mL Scutellaria baicalensis extract (SBE200+BP50), and iii) a group treated with 50 μM/mL benzo[a]pyrene and 400 μL/mL Scutellaria baicalensis extract (SBE400+BP50). To observe cell apoptosis, the cells were stained using Annexin-V-PI dye kit (Invitrogen, USA). Since Annexin-V binds to phosphatidylserine (PS), which was exposed on the outer cell membrane during early apoptosis, early apoptosis can be identified using Annexin-V. Meanwhile, propidium iodide (PI), which binds to the nucleus, stains the nucleus through holes formed in the cell membrane in a state of late apoptosis or necrosis, thereby allowing the identification of late apoptotic or dead cells. […] For result analysis, the cellular viability was measured using a flow cytometer (BD FACSCalibur) and FlowJo 10.6.1 (BD Bioscience), and the results are shown in FIG. 2.
# [5] = tested on: CCAAT enhancer binding protein alpha (CEBP-α); experiment: mRNA expression level of CEBP-α in ASCs (RT-PCR); conditions: 50 μM/mL benzo[a]pyrene (BP50) vs control (Con)
# Experimental: The influence of benzo[a]pyrene and the Scutellaria baicalensis extract on the mRNA expression level of CCAAT enhancer binding protein alpha (CEBP-α), one of the lipolysis promoting genes, was investigated by the method as below.
# The adipose-derived stem cells were divided into i) a control group with no treatment (Con), ii) a group treated with 50 μM/mL benzo[a]pyrene (BP50), iii) a group treated with 50 μM/mL benzo[a]pyrene and 200 μL/mL Scutellaria baicalensis extract (SBE200+BP50), and iv) a group treated with 50 μM/mL benzo[a]pyrene and 400 μL/mL Scutellaria baicalensis extract (SBE400+BP50), and the total RNA of each cell group was extracted using […] (GeneAll, Seoul, Korea). RNA was used to synthesize cDNA under the conditions of 1 minute at 95° C. and 35 seconds at 72° C. by using Maxime RT PreMix (iNtRON, Seungnam, Korea). The synthesized cDNA was amplified using the primers shown in Table 1 under the conditions of 15 seconds at 95° C., 30 seconds at 59° C., and 1 minute at 72° C. The amount of cDNA amplification was analyzed using iBright (FL1000, Thermo Fisher Scientific, Waltham, MA, USA) and iBright Analysis software 3.1.3 (Thermo Fisher Scientific, Waltham, MA, MA, USA), and the results are shown in FIG. 5.
# [6] = tested on: AMP-activated protein kinase (AMPK); experiment: Lipolysis promoting effect in ASCs, PE-anti-AMPK staining, flow cytometry and AMPK synthesis level; conditions: benzo[a]pyrene alone (BP50)
# Experimental: as §4, §5
structure (smiles),measurement,setting,value
"c1ccc2c(c1)cc1ccc3cccc4ccc2c1c34 [benzo[a]pyrene, Benzo[a]pyrene]",CC50 at 3 days,[1],25 µM
same,CC50,[2],50 µM
same,proportion of cells undergoing lipolysis by HSL,[3],14.92%
same,cellular viability,[4],48.1%
same,early apoptotic cell proportion,[4],29.6%
same,late apoptotic cell proportion,[4],51.8%
same,"mRNA expression level of CEBP-α, fold higher than control group",[5],4.73 fold
same,proportion of cells undergoing lipolysis by AMPK,[6],18.72%
